Data as given in patent publication US8586043B2, “Methods for treating breast cancer with inhibitors of neurotensin activation of NTSR1” (INSERM ( Institut National de la Sante et de la Recherche …, priority 2009, dated 2013).

System: NTS gene
Assay: NTS transcript RT-PCR in HBEC after hormonal treatment
Type: cell-based, human
Settings: 1 μM ICI 182780 added concomitantly to 10 nM estradiol, 48 h
Procedure: A) Left, one μg of total RNA from HBEC or whole gland were reverse-transcribed and a PCR experiment specific for NTS was performed. Right, one μg of total RNA from HBEC cells (control, treated with 10 nM estradiol (E2) with or without 1 μM ICI 182780) was reverse-transcribed. A PCR experiment was performed using specific primers for NTS and GAPDH.
The protocols for total RNA extraction, reverse-transcription reaction (RT), and PCR are documented in Souaze et al (Souaze F, Rostene W, Forgez P (1997) J. Biol. Chem. 272:10087-10094). RT was performed on 1 μg of total RNA using a specific NTSR1 primer (5′-[…]-3′ SEQ ID NO:3) or 50 pmol of oligo dT and oligo dN. The PCR amplification was performed on a 1:5 v/v of the RT reaction using 25 pmol of each primer 5′-[…]-3′ SEQ ID NO:4 and 5′-[…]-3′ SEQ ID NO:5 for NTSR1, and 5′-[…]-3′ SEQ ID NO:6 and 5′-[…]-3′ SEQ ID NO:7 for NTS, and 1 unit of Taq polymerase (Applied Biosystems, Courtaboeuf, France). The amplification profile consisted of denaturation at 94° C. for 30 s, annealing at 57° C. for 45 s, and extension at 72° C. for 45 s. The PCR cycle were preceded by denaturation at 95° C. for 15 min and were followed by a final extension at 72° C. for 7 min.
HBEC were synchronized for 40 h in Ham F10 phenol red free medium containing 20 μM lovastatin. Synchronization was stopped by adding 2 mM mevalonate to the hormone-containing medium. […]

With `C[C@]12CC[C@@H]3c4ccc(O)cc4C[C@@H](CCCCCCCCC[S+]([O-])CCCC(F)(F)C(F)(F)F)[C@H]3[C@@H]1CC[C@@H]2O` (stereo partly shown) [ICI 182780] the “effect on the estradiol-induced enhancement of NTS transcripts” value was “abolished”.
